From US12606566B2, “Substituted cyclopenta[4,5]pyrrolo[1,2-a]pyrazines as bruton's tyrosine kinase inhibitors” (Shanghai Synergy Pharmaceutical Sciences Co., Ltd., priority 2020, dated 2026) come the findings set out here.

The subject of experiment [1] is tumour cells (A20 5E6 cells). In words: Inhibitory effect on tumour cell proliferation (CCK8). The class given is cell-based. The note with it: CCK8 absorbance, read-out: Inhibitory effect of the compound on cell proliferation IC50. As to the method: This experiment was to determine the effect of the compound on cell proliferation.
To determine the inhibitory effect of the compound on the proliferation of tumour cells, tumour cells (A20 5E6 cells) were cultured to a certain amount and seeded into 96-well plates. […] The absorbance value was measured after the addition of CCK8 and 2 h incubation to determine the inhibitory effect of the compound on cell proliferation. The IC50 value of the compound was obtained by data fitted with Graphpad.

For experiment [2], the target named is BTK kinase (Homo sapiens, UniProt Q06187). The experiment is described as follows: BTK kinase inhibitory activity, mobility shift method. The class given is biochemical. The note with it: compound co-incubated with the enzyme for 30 minutes. Here is the method:
The BTK kinase inhibitory activity of the compound was determined using a mobility shift method with the reaction system (kinase solution, ATP, kinase substrate2). The compound was co-incubated with the enzyme for 30 minutes, and then the conversion rate was read using the Caliper EZ reader. The compound inhibition rate was determined using the calculation formula and the data was fitted using Graphpad to derive the IC50 value for the compounds of this application.

BTK kinase, sequence (Q06187 whole entry): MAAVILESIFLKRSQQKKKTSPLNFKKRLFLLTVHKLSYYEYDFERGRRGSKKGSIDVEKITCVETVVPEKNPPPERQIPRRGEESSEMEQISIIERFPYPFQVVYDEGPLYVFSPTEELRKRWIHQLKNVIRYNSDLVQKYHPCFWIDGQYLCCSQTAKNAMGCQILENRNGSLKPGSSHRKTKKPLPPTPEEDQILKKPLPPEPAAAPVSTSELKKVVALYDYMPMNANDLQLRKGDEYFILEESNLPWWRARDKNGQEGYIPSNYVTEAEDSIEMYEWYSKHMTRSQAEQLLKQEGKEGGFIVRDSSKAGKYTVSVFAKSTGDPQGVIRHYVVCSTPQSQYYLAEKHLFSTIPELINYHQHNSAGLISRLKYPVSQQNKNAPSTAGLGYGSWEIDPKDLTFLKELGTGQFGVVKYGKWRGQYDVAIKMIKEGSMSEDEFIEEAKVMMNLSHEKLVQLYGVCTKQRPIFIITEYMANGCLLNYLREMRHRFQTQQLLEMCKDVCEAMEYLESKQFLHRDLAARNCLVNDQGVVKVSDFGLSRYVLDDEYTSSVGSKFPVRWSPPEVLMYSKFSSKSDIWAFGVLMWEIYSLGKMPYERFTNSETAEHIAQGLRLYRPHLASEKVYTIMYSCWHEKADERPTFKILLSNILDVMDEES

With `Cn1cc(-c2ccnc(N3CCn4c5c(c(F)c4C3=O)CC(C)(C)C5)c2CO)cc(Nc2ccc(N3CCN(C4COC4)CC3)cn2)c1=O` [Example H10, 9-fluoro-2-(3′-(hydroxymethyl)-1-methyl-5-((5-(4-(oxetan-3-yl)piperazin-1-yl)pyridin-2-yl)amino)-6-oxo-1,6-dihydro-[3,4′-bipyridin]-2′-yl)-7,7-dimethyl-3,4,7,8-tetrahydro-2H-cyclopenta[4,5]pyrrolo[1,2-a]pyrazin-1(6H)-one], the results for the IC50 in experiment [1] and in experiment [2] were 21 nM and 0.21 nM, respectively. Take `CN1CCN(c2ccc(Nc3cc(-c4ccnc(N5CCn6c(cc7c6CC(C)(C)C7)C5=O)c4CO)nc4ccoc34)nc2)CC1` [Example H08, 2-(3-(hydroxymethyl)-4-(7-((5-(4-methylpiperazin-1-yl)pyridin-2-yl)amino)furo[3,2-b]pyridin-5-yl)pyridin-2-yl)-7,7-dimethyl-3,4,7,8-tetrahydro-2H-cyclopenta[4,5]pyrrolo[1,2-a]pyrazin-1(6H)-one]: the IC50 in experiment [1] was found to be 29 nM; in experiment [2], 0.23 nM. For `C[C@H]1CN(C2COC2)CCN1c1ccc(Nc2cc(-c3ccnc(N4CCn5c6c(c(OC7CC7)c5C4=O)CC(C)(C)C6)c3CO)cn(C)c2=O)nc1` [Example H23, (S)-9-cyclopropoxy-2-(3′-(hydroxymethyl)-1-methyl-5-((5-(2-methyl-4-(oxetan-3-yl)piperazin-1-yl)pyridin-2-yl)amino)-6-oxo-1,6-dihydro-[3,4′-bipyridin]-2′-yl)-7,7-dimethyl-3,4,7,8-tetrahydro-2H-cyclopenta[4,5]pyrrolo[1,2-a]pyrazin-1(6H)-one], in experiment [2], the IC50 worked out at 0.51 nM. With `C=CC(=O)N1CCC[C@@H](n2nc(-c3ccc(Oc4ccccc4)cc3)c3c(N)ncnc32)C1` [Ibrutinib, reference compound], in experiment [1], the IC50 turned out to be 87 nM. With `C[C@H]1CN(C2COC2)CCN1c1ccc(Nc2cc(-c3ccnc(N4CCn5c6c(c(F)c5C4=O)CC(C)(C)C6)c3CO)cn(C)c2=O)nc1` [Example H01, (S)-9-fluoro-2-(3′-(hydroxymethyl)-1-methyl-5-((5-(2-methyl-4-(oxetan-3-yl)piperazin-1-yl)pyridin-2-yl)amino)-6-oxo-1,6-dihydro-[3,4′-bipyridin]-2′-yl)-7,7-dimethyl-3,4,7,8-tetrahydro-2H-cyclopenta[4,5]pyrrolo[1,2-a]pyrazin-1(6H)-one], the IC50 worked out at 24 nM in experiment [1] and 0.23 nM in experiment [2]. Regarding `C[C@H]1CN(C2COC2)CCN1c1ccc(Nc2cc(-c3ccc(C#N)c(N4CCn5c(cc6c5CC(C)(C)C6)C4=O)c3CO)cn(C)c2=O)nc1` [Example H06, (S)-2-(7,7-dimethyl-1-oxo-1,3,4,6,7,8-hexahydro-2H-cyclopenta [4,5]pyrrolo[1,2-a]pyrazin-2-yl)-3-(hydroxymethyl)-4-(1-methyl-5-((5-(2-methyl-4-(oxetan-3-yl)piperazin-1-yl)pyridin-2-yl)amino)-6-oxo-1,6-dihydropyridin-3-yl) benzonitrile], the IC50 in experiment [1] came out at 31 nM; in experiment [2], 0.41 nM. For `CC(C)Oc1c2c(n3c1C(=O)N(c1nccc(-c4cc(Nc5ccc(N6CCN(C7COC7)C[C@@H]6C)cn5)c(=O)n(C)c4)c1CO)CC3)CC(C)(C)C2` [Example H24, (S)-2-(3′-(hydroxymethyl)-1-methyl-5-((5-(2-methyl-4-(oxetan-3-yl)piperazin-1-yl)pyridin-2-yl)amino)-6-oxo-1,6-dihydro-[3,4′-bipyridin]-2′-yl)-9-isopropoxy-7,7-dimethyl-3,4,7,8-tetrahydro-2H-cyclopenta[4,5]pyrrolo[1,2-a]pyrazin-1(6H)-one], the IC50 in experiment [2] is 0.65 nM. Regarding `Cc1c2c(n3c1C(=O)N(c1nccc(-c4cc(Nc5ccc(N6CCN(C7COC7)C[C@@H]6C)cn5)c(=O)n(C)c4)c1CO)CC3)CC(C)(C)C2` [Example H03, (S)-2-(3′-(hydroxymethyl)-1-methyl-5-((5-(2-methyl-4-(oxetan-3-yl)piperazin-1-yl)pyridin-2-yl)amino)-6-oxo-1,6-dihydro-[3,4′-bipyridin]-2′-yl)-7,7,9-trimethyl-3,4,7,8-tetrahydro-2H-cyclopenta[4,5]pyrrolo[1,2-a]pyrazin-1(6H)-one], the IC50 in experiment [1] came to 61 nM; in experiment [2] it was 0.14 nM. With `C[C@H]1CN(C2COC2)CCN1c1ccc(Nc2cc(-c3ccnc(N4CCn5c6c(c(N)c5C4=O)CC(C)(C)C6)c3CO)cn(C)c2=O)nc1` [Example H25, (S)-9-amino-2-(3′-(hydroxymethyl)-1-methyl-5-((5-(2-methyl-4-(oxetan-3-yl)piperazin-1-yl)pyridin-2-yl)amino)-6-oxo-1,6-dihydro-[3,4′-bipyridin]-2′-yl)-7,7-dimethyl-3,4,7,8-tetrahydro-2H-cyclopenta[4,5]pyrrolo[1,2-a]pyrazin-1(6H)-one], the IC50 in experiment [2] is 0.44 nM. Still for that read-out and setting: the same measure for `C[C@H]1CN(C2COC2)CCN1c1ccc(Nc2cc(-c3ccnc(N4CCn5c6c(c(C#N)c5C4=O)CC(C)(C)C6)c3CO)cn(C)c2=O)nc1` [Example H18, (S)-2-(3′-(hydroxymethyl)-1-methyl-5-((5-(2-methyl-4-(oxetan-3-yl)piperazin-1-yl)pyridin-2-yl)amino)-6-oxo-1,6-dihydro-[3,4′-bipyridin]-2′-yl)-7,7-dimethyl-1-oxo-1,3,4,6,7,8-hexahydro-2H-cyclopenta[4,5]pyrrolo[1,2-a]pyrazine-9-carbonitrile]: 0.65 nM.

In the case of `CNc1c2c(n3c1C(=O)N(c1nccc(-c4cc(Nc5ccc(N6CCN(C7COC7)C[C@@H]6C)cn5)c(=O)n(C)c4)c1CO)CC3)CC(C)(C)C2` [Example H26, (S)-2-(3′-(hydroxymethyl)-1-methyl-5-((5-(2-methyl-4-(oxetan-3-yl)piperazin-1-yl)pyridin-2-yl)amino)-6-oxo-1,6-dihydro-[3,4′-bipyridin]-2′-yl)-9-methylamino-7,7-dimethyl-3,4,7,8-tetrahydro-2H-cyclopenta[4,5]pyrrolo[1,2-a]pyrazin-1(6H)-one], the IC50 in experiment [2] came to 0.46 nM. Still for that read-out and setting: in the case of `CCOc1c2c(n3c1C(=O)N(c1nccc(-c4cc(Nc5ccc(N6CCN(C7COC7)C[C@@H]6C)cn5)c(=O)n(C)c4)c1CO)CC3)CC(C)(C)C2` [Example H20, (S)-9-ethoxy-2-(3′-(hydroxymethyl)-1-methyl-5-((5-(2-methyl-4-(oxetan-3-yl)piperazin-1-yl)pyridin-2-yl)amino)-6-oxo-1,6-dihydro-[3,4′-bipyridyl]-2′-yl)-7,7-dimethyl-3,4,7,8-tetrahydro-2H-cyclopenta[4,5]pyrrolo[1,2-a]pyrazin-1(6H)-one] it was 0.55 nM; in that of `C[C@H]1CN(C2COC2)CCN1c1ccc(Nc2cc(-c3ccnc(N4CCn5c6c(c(C(F)(F)F)c5C4=O)CC(C)(C)C6)c3CO)cn(C)c2=O)nc1` [Example H19, (S)-2-(3′-(hydroxymethyl)-1-methyl-5-((5-(2-methyl-4-(oxetan-3-yl)piperazin-1-yl)pyridin-2-yl)amino)-6-oxo-1,6-dihydro-[3,4′-bipyridin]-2′-yl)-7,7-dimethyl-9-(trifluoromethyl)-3,4,7,8-hexahydro-2H-cyclopenta[4,5]pyrrolo[1,2-a]pyrazine-1(6H)-one], 0.52 nM.
